Source: BindingDB's records for doi:10.1016/j.bioorg.2015.01.005 (Kurukshetra University, 2015)
pKi: −log10 of the molar value.

Tests used:
Cathepsin B = Cathepsin B (Capra hircus, UniProt H9B8T9); experiment: Cathepsin Ezyme Assay; conditions: pH 6
Method: (§1) Cathepsin B and H were first activated in the presence of thiol activators at pH 6.0 and pH 7.0, respectively. Then, 15 µL of the enzyme solution was mixed with 940 µL of 0.1 M sodium phosphate buffer containing 1 mM EDTA separately, for 10 min at 37 °C. […] After 30 min, 25 µL of 100 mM substance stock solution was added to start the reaction.

Cathepsin H = target: T1, Cathepsin H (Capra hircus, UniProt A0A060INS8); experiment: Cathepsin Ezyme Assay; conditions: pH 6
T1 sequence (A0A060INS8 whole entry): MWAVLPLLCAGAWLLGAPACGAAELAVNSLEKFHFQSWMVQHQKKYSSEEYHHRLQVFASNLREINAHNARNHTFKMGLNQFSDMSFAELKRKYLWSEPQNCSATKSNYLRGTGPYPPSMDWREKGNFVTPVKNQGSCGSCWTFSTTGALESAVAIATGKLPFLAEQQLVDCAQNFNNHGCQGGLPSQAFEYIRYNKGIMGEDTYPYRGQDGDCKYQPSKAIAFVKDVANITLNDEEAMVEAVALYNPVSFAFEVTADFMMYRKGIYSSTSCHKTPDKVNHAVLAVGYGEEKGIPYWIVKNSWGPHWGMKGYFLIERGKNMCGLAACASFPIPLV
Method: as §1

Row | SMILES | pKi (Cathepsin B) | pKi (Cathepsin H)
1 | O=C1NC(c2ccc(Cl)cc2)Nc2ccccc21 (centres undefined) [2-(4-Chlorophenyl)-2,3-dihydroquinazolin-4(1H)-one (1e)] | 7.39 | 4.63
2 | Cc1ccc(C2NC(=O)c3ccccc3N2)cc1 (centres undefined) [2-(4-Methylphenyl)-2,3-dihydroquinazolin-4(1H)-one (1c)] | 4.28 | 5.60
3 | CN(C)c1ccc(C2NC(=O)c3ccccc3N2)cc1 (centres undefined) [2-(4-(Dimethylamino)phenyl)-2,3-dihydroquinazolin-4(1H)-one (1h)] | 4.97 | 4.73
4 | O=C1NC(c2ccc(F)cc2)Nc2ccccc21 (centres undefined) [2-(4-Fluorophenyl)-2,3-dihydroquinazolin-4(1H)-one (1f)] | 8.19 | 5.09
5 | O=C1NC(c2ccc([N+](=O)[O-])cc2)Nc2ccccc21 (centres undefined) [2-(4-Nitrophenyl)-2,3-dihydroquinazolin-4(1H)-one (1b)] | 5.80 | 4.98
6 | COc1ccc(C2NC(=O)c3ccccc3N2)cc1 (centres undefined) [2-(4-Methoxyphenyl)-2,3-dihydroquinazolin-4(1H)-one (1d)] | 5.55 | 4.25
7 | O=C1NC(c2ccc(Br)cc2)Nc2ccccc21 (centres undefined) | 4.49 | 4.28
